Where two headings read alike, the source gives them in different places.
What was measured:
H1819 = assay: Cell viability dose-response, H1819; format: cell-based, human; details: Homo sapiens
Protocol: (§1) FIG. 6A. […] Cell viability is plotted vs. compound concentration. Compound was added to cells plated at 15% confluence in 96-well plates in RPMI-1640 media supplemented with 5% Fetal Bovine Serum and 2 mM L-Glutamine. After 4 days of incubation, ATP levels were measured using Cell Titer Glo (Promega). Data are presented as the average of 2 replicates ±SEM.
(§2) Selectivity may be measured by the half maximal inhibitory concentration (IC50), which, as used herein, is a measure of the effectiveness of a compound in killing cells. This quantitative measure indicates how much of a particular compound is needed to kill a particular cell population by half (e.g., as indicated by the amount of ATP). […] The IC50 can be determined by constructing a dose-response curve. The lower the IC50, the higher the potency, and the greater the difference between IC50 values for different cell lines (e.g., sensitive lines vs. insensitive lines, and sensitive lines vs. normal lines) the greater the selectivity. […]
(§3) With this information, we synthesized and tested a series of small molecules derived in conception from the oxalamide and chromone scaffold including N-acyl ureas, as shown in Tables 6-8. Each compound was tested in a 12-point dose-response study starting at 50 micromolar and decreasing in 3-fold increments to sub-nanomolar concentrations, in duplicate. Additionally, one or more additional cell line was tested in the same way.

H2122 = assay: Cell viability dose-response, H2122; format: cell-based, human; details: Homo sapiens
Protocol: as §1, §2, §3

[1] = NCI-H1819, 12-point dose-response starting at 50 micromolar, 3-fold increments, in duplicate, read-out: toxicity data, H1819
[2] = NCI-H2122, 12-point dose-response starting at 50 micromolar, 3-fold increments, in duplicate, read-out: toxicity data, H2122
[3] = NCI-H1819, read-out: toxicity data, H1819
[4] = NCI-H1819, Tables 3 and 4, read-out: IC50 (uM) vs indicated non-small cell lung cancer cell line H1819
[5] = NCI-H2122, Tables 3 and 4, read-out: IC50 (uM) vs indicated non-small cell lung cancer cell line H2122

| SMILES | IC50 (H1819; [1]) [µM] | IC50 (H2122; [2]) [µM] | further results |
| --- | --- | --- | --- |
| COc1ccc(CCNC(=O)C(=O)Nc2ccc(C)cc2OC)cc1 [SW206971-1] | ≥ 49.5 | ≥ 49.5 | – |
| COc1ccc(CCNC(=O)C(=O)Nc2ccc(Cl)c(OC)c2)cc1 [SW206973-1] | 49 | ≥ 49.5 | – |
| COc1ccc(CCNC(=O)C(=O)Nc2ccc(Cl)c(C)c2)cc1 [SW206974-1] | ≥ 49.5 | 0.697 | – |
| C#CCOc1ccc(CCNC(=O)C(=O)Nc2ccc(C(=O)c3ccccc3)cc2)cc1 [SW207038-2-A] | ≥ 49.5 | 3.17 | – |
| COc1ccc(CCNC(=O)C(=O)Nc2ccc(C(=O)c3ccc(OC)cc3)cc2)cc1 [SW208009-1-A] | ≥ 49.5 | 0.081 | – |
| O=C(NCCc1ccc(O)cc1)C(=O)Nc1ccc(Cl)cc1 [SW208023-1-A] | 7.74 | 0.257 | – |
| COc1ccc(CCNC(=O)Nc2ccc(OC)cc2)cc1 [SW208024-1-A] | ≥ 49.5 | ≥ 49.5 | – |
| COc1ccc(CCNC(=O)C(=O)NCc2ccc(Cl)cc2)cc1 [SW208025-1-A] | ≥ 49.5 | ≥ 49.5 | – |
| COc1ccc(CNC(=O)C(=O)NCc2ccc(Cl)cc2)cc1 [SW208026-1-A] | ≥ 49.5 | ≥ 49.5 | – |
| Cc1ccccc1CCNC(=O)C(=O)Nc1ccc(Cl)cc1 [SW208027-1-A] | ≥ 49.5 | ≥ 49.5 | – |
| COc1ccc(CCNC(=O)C(=O)N(C)c2cccc(F)c2)cc1 [SW208028-1-A] | ≥ 49.5 | ≥ 49.5 | – |
| COc1ccc(CCCNC(=O)Nc2ccc(OC)cc2)cc1 [SW208029-1-A] | ≥ 49.5 | ≥ 49.5 | – |
| COc1ccc(CCNC(=O)C(=O)N2CCCCC2)cc1 [SW208030-1-A] | ≥ 49.5 | ≥ 49.5 | – |
| COc1ccc(CCNC(=O)C(=O)NC2CC2)cc1 [SW208031-1-A] | ≥ 49.5 | ≥ 49.5 | – |
| COc1ccc(CCNC(=O)C(=O)NC2CCC2)cc1 [SW208032-1-A] | ≥ 49.5 | ≥ 49.5 | – |
| COc1ccc(CCNC(=O)C(=O)NC2CCCC2)cc1 [SW208033-1-A] | ≥ 49.5 | ≥ 49.5 | – |
| COc1ccc(CCNC(=O)C(=O)NC2CCCCC2)cc1 [SW208034-1-A] | ≥ 49.5 | ≥ 49.5 | – |
| COc1ccc(CCNC(=O)C(=O)NC2CCCCCC2)cc1 [SW208035-1-A] | ≥ 49.5 | ≥ 49.5 | – |
| Cc1ccc(CCNC(=O)C(=O)Nc2ccc(Cl)cc2)cc1 [SW208036-1-A] | ≥ 49.5 | ≥ 49.5 | – |
| O=C(NCCc1cccc(Cl)c1)C(=O)Nc1ccc(Cl)cc1 [SW208037-1-A] | ≥ 49.5 | ≥ 49.5 | – |
| COc1ccc(CCNC(=O)COc2ccc(Cl)cc2)cc1 [SW208038-1-A] | ≥ 49.5 | ≥ 49.5 | – |
| O=C(NCCc1ccc(F)cc1)C(=O)Nc1ccc(Cl)cc1 [SW208039-1-A] | ≥ 49.5 | 47.5 | – |
| COc1ccc(CNC(=O)COc2ccc(Cl)cc2)cc1 [SW208040-1-A] | ≥ 49.5 | ≥ 49.5 | – |

| SMILES | IC50 (H1819; [1]) [µM] | IC50 (H2122; [2]) [µM] | further results |
| --- | --- | --- | --- |
| COc1ccc(CCNC(=O)CNc2ccc(Cl)cc2)cc1 [SW208041-1-A] | ≥ 49.5 | 48.4 | – |
| COc1ccc(CNC(=O)CNc2ccc(Cl)cc2)cc1 [SW208042-1-A] | ≥ 49.5 | ≥ 49.5 | – |
| COc1ccc(CCNC(=O)NCc2ccccc2)cc1 [SW208043-2-A] | ≥ 49.5 | ≥ 49.5 | – |
| COc1ccc(CCNC(=O)C(=O)N2CCOCC2)cc1 [SW208044-1-A] | ≥ 49.5 | ≥ 49.5 | – |
| COc1ccc(CCNC(=O)Nc2ccc(Cl)cc2)cc1 [SW208045-1-A] | – | – | IC50 (H1819; [3]): ≥ 49.5 µM; IC50 (H2122; NCI-H2122, read-out: toxicity data, H2122): ≥ 49.5 µM |
| COc1ccc(CNC(=O)Nc2ccc(Cl)cc2)cc1 [SW208046-1-A] | ≥ 49.5 | ≥ 49.5 | – |
| COc1ccc(CNC(=O)NCc2ccccc2)cc1 [SW208047-1-A] | ≥ 49.5 | ≥ 49.5 | – |
| COc1ccc(CCNC(=O)C(=O)N2CCN(C)CC2)cc1 [SW208048-1-A] | ≥ 49.5 | ≥ 49.5 | – |
| COc1ccc(CCNC(=O)C(=O)N2CCCC2)cc1 [SW208049-1-A] | ≥ 49.5 | ≥ 49.5 | – |
| COc1ccc(CCNC(=O)c2nc3ccccc3[nH]2)cc1 [SW208050-1-A] | ≥ 49.5 | ≥ 49.5 | – |
| COc1ccc(CCNC(=O)c2cnc3ccccc3n2)cc1 [SW208051-1-A] | ≥ 49.5 | ≥ 49.5 | – |
| COc1ccc(CCNC(=O)c2ccc3ccccc3n2)cc1 [SW208052-1-A] | ≥ 49.5 | ≥ 49.5 | – |
| COc1ccc(CCNC(=O)c2cc(OC)c3ccccc3n2)cc1 [SW208053-1-A] | 32 | 45.9 | – |
| COc1ccc(CCNC(=O)c2cc(O)c3cccc(O)c3n2)cc1 [SW208054-1-A] | ≥ 49.5 | 46.3 | – |
| COc1ccc(CCNC(=O)c2ccc3cccc(F)c3n2)cc1 [SW208055-1-A] | ≥ 49.5 | ≥ 49.5 | – |
| COc1ccc(CCNC(=O)c2ccc3cccc(O)c3n2)cc1 [SW208056-1-A] | 29.8 | 30.2 | – |
| COc1ccc(CCNC(=O)c2ccc3ccc(Br)cc3n2)cc1 [SW208057-1-A] | 34.9 | ≥ 49.5 | – |
| COc1ccc(CCNC(=O)C(=O)N2Cc3ccccc3C2)cc1 [SW208058-1-A] | ≥ 49.5 | ≥ 49.5 | – |
| COc1ccc(CCNC(=O)C(=O)N2CCc3ccccc32)cc1 [SW208059-1-A] | ≥ 49.5 | ≥ 49.5 | – |
| COc1ccc(CCNC(=O)C(=O)N2CCc3ccccc3C2)cc1 [SW208060-1-A] | ≥ 49.5 | ≥ 49.5 | – |
| CCOc1ccc(CCNC(=O)C(=O)Nc2ccc(Cl)cc2)cc1 [SW208061-1-A] | ≥ 49.5 | ≥ 49.5 | – |
| O=C(NCc1ccccc1)NCc1ccccc1 [SW208062-1-A] | – | ≥ 49.5 | IC50 (H1819; [3]): ≥ 49.5 µM |
| COc1ccc(CCNC(=O)c2nc3ccccc3c(=O)[nH]2)cc1 [SW208063-1-A] | ≥ 49.5 | ≥ 49.5 | – |

| SMILES | IC50 (H1819; [1]) [µM] | IC50 (H2122; [2]) [µM] | further results |
| --- | --- | --- | --- |
| C#CCOc1ccc(C(=O)c2ccc(NC(=O)C(=O)NCCc3ccc(OC)cc3)cc2)cc1 [SW208108-1-A] | ≥ 49.5 | 0.028 | – |
| COc1ccc2nc(NC(=O)c3ccc([C@@H](N)c4ccccc4)cc3)sc2c1 [SW208109] | – | – | IC50 (H1819; [4]): 7.75 µM; IC50 (H2122; [5]): 0.067 µM |
| COc1ccc2nc(NC(=O)c3ccc([C@H](N)c4ccccc4)cc3)sc2c1 [SW208110] | – | – | IC50 (H1819; [4]): 5.97 µM; IC50 (H2122; [5]): 0.012 µM |
| COc1ccc(C(=O)c2ccc(NC(=O)C(=O)NCCc3ccc(O)cc3)cc2)cc1 [SW208117-1-A] | 15.6 | 0.031 | IC50 (H2122; NCI-H2122, Table 9, competitor, read-out: IC50 to H2122 cells): 0.0244 µM |
| COc1ccc(CCCNC(=O)NCc2ccccc2)cc1 [SW208120-1-A] | ≥ 49.5 | 38.9 | – |
| COc1ccc(CCCNC(=O)NCc2ccc(Cl)cc2)cc1 [SW208121-1-A] | 5.75 | 3.67 | – |
| COc1ccc(CCNC(=O)C(=O)Nc2ccccn2)cc1 [SW208122-1-A] | ≥ 49.5 | 45 | – |
| COc1ccc(CCNC(=O)C(=O)Nc2ccc(Cl)cn2)cc1 [SW208123-1-A] | 46.3 | 0.348 | – |
| COc1ccc(CCNC(=O)c2ccc3ccccc3c2O)cc1 [SW208124-1-A] | 34.1 | 36.2 | – |
| COc1ccc(CCNC(=O)c2nc3ccccc3o2)cc1 [SW208125-1-A] | ≥ 49.5 | 30.4 | – |
| COc1ccc(CCNC(=O)C(=O)Nc2cccc(Br)n2)cc1 [SW208126-1-A] | ≥ 49.5 | ≥ 49.5 | – |
| COc1ccc(CCNC(=O)C(=O)Nc2ccc(Cl)nc2)cc1 [SW208127-1-A] | ≥ 49.5 | 0.438 | – |
| COc1ccc(CCNC(=O)C(=O)Nc2ccc(Br)cn2)cc1 [SW208128-1-A] | ≥ 49.5 | 0.289 | – |
| COc1ccc(CCNC(=O)C(=O)NN2CCCCC2)cc1 [SW208129-1-A] | ≥ 49.5 | ≥ 49.5 | – |
| COc1ccc(CCNC(=O)C(=O)CNc2ccncc2)cc1 [SW208130-1-A] | ≥ 49.5 | ≥ 49.5 | – |
| COc1ccc(CCNC(=O)C(=O)NN2CCN(C)CC2)cc1 [SW208131-1-A] | ≥ 49.5 | ≥ 49.5 | – |
| COc1ccc(CCNC(=O)C(=O)O)cc1 [SW208132-1-A] | ≥ 49.5 | ≥ 49.5 | – |
| COc1ccc(CCNC(=O)C(=O)Nc2cccnc2F)cc1 [SW208133-1-A] | ≥ 49.5 | ≥ 49.5 | – |
| COc1ccc(CCNC(=O)C(=O)Nc2cnccc2C)cc1 [SW208134-1-A] | ≥ 49.5 | ≥ 49.5 | – |
| COc1ccc(CCNC(=O)C(=O)Nc2ccncc2)cc1 [SW208135-1-A] | ≥ 49.5 | ≥ 49.5 | – |
| COc1ccc(CCNC(=O)C(=O)Nc2cnccn2)cc1 [SW208137-1-A] | ≥ 49.5 | ≥ 49.5 | – |
| COc1ccc(CCNC(=O)C(=O)Nc2ccnc(C)c2)cc1 [SW208138-1-A] | ≥ 49.5 | ≥ 49.5 | – |
| COc1ccc(CCNC(=O)C(=O)Nc2cncc(Cl)c2)cc1 [SW208139-1-A] | ≥ 49.5 | 5.88 | – |

Reference: patent US9789096B2, “Methods and compositions for selective and targeted cancer therapy” (Board of Regents of the University of Texas System, priority 2013, dated 2017)
